# Literature values, collected in patent publication US20050095265A1, “Process for making larvicidal evaporation suppressant powder” (priority 2002, published 2005).
Compound,"larvicidal effect (Culex quinquefasciatus; film-forming compound on water surface, Culex quinquefasciatus larvae)","effect on larvae of feeding on particles floating on the water surface (Culex quinquefasciatus; particles on water surface of test units, apparently fed upon by mosquito larvae)",influence on aquatic larvae (Anopheles gambiae),mosquito larvae mortality (Culex quinquefasciatus; as reported by Lorenzen and Meinke)
"CCCCCCCCCCCCCCCCO [cetyl alcohol, n-hexadecanol]",no larvicidal effect,no ill effect,no appreciable influence,
"CCCCCCCCCCCCO [lauryl alcohol, dodecanol]",,,,cause mosquito larvae mortality
